What was measured:
[1] = system: mice; assay: Forced swim test in LPS-treated mice (improvement of depression); format: in vivo; settings: forced swim test on Day 6; oral gavage 0.02 mL/10 g daily Days 1-5; LPS 1 mg/kg intraperitoneally Days 3, 4, 5; 10 mice per group
Protocol: (§1) The antidepressant effect of the composition was evaluated through the forced swim test in mice and measurement of oxidative stress levels in the cerebral cortex. Specific procedures were as follows:
(§2) Mice aged 8-9 weeks were selected as test subjects (10 mice per composition group for differential analysis and multiple comparisons; in differential analysis, * denoted p<0.05, ** p<0.01, *** p<0.001). The neural repair compositions prepared in the above examples and comparative examples were administered to mice via oral gavage. A positive control group treated with lipopolysaccharide (LPS) and a blank control group treated with physiological saline were included. From Days 1-5, mice were orally gavaged daily at the same time with 0.02 mL (normalized to body weight)/10 g of the compositions. On Days 3, 4, and 5, LPS (1 mg/kg) was intraperitoneally administered alongside the compositions. The positive control group differed by receiving only LPS (1 mg/kg) on Days 3, 4, and 5, while the blank control group received physiological saline throughout Days 1-5. On Day 6, behavioral tests (immobility time in the forced swim test, in s) and tissue sampling for oxidative stress assessment (reactive oxygen species absorption levels, expressed as absorbance) were conducted. The results are detailed in FIG. *to FIG. 2 and Tables 1-2.

[2] = system: reactive oxygen species; assay: Oxidative stress level (ROS) in the cerebral cortex of LPS-treated mice; format: in vivo; settings: cerebral cortex sampled Day 6; oral gavage 0.02 mL/10 g daily Days 1-5; LPS 1 mg/kg intraperitoneally Days 3, 4, 5
Protocol: as §1, §2

Substance: lipopolysaccharide [LPS]
- Immobility time of mice [1]: 230 ± 26 s
- ROS absorption level [2]: 0.47 ± 0.10 absorbance

Reference: patent US20260115249A1, “NEURAL REPAIR COMPOSITION, METHOD OF PREPARATION, AND USE THEREOF” (SHENZHEN JINFENG BIOMEDICAL TECH. CO., LTD., priority 2023, published 2026)
